Assay results taken from ChEMBL document CHEMBL4229328, “Quest for Novel Chemical Entities through Incorporation of Silicon in Drug Scaffolds” (J Med Chem, 2018).
Converted amounts (≈) assume the structure as drawn.

Legend:
[1] = biological target: Sigma non-opioid intracellular receptor 1 (Cavia porcellus, UniProt Q60492); assay: Displacement of [3H]-(+)pentazocine from sigma-1 receptor in guinea pig brain membranes after 180 mins by scintillation counting method; format: cell membranes, Membrane
[2] = biological target: T1, Sigma intracellular receptor 2 (Rattus norvegicus, UniProt Q5U3Y7); assay: Displacement of [3H]-DTG from sigma-2 receptor in rat liver membranes after 180 mins by scintillation counting method; format: cell membranes, Membrane
T1 sequence (Q5U3Y7 whole entry): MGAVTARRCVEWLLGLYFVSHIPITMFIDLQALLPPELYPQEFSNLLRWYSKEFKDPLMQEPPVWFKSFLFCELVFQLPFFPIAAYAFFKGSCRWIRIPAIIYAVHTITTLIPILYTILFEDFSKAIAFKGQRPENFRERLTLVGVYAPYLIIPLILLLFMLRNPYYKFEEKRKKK

Escherichia coli = format: functional, C3000 ATCC 15597
Staphylococcus aureus = format: functional
Pseudomonas aeruginosa = format: functional, ATCC 10145
Enterococcus faecalis = format: functional, ATCC 19433
Histone deacetylase 1 = Histone deacetylase 1 (Homo sapiens, UniProt Q13547); assay: Inhibition of human recombinant HDAC1 using Ac-Leu-Gly-Lys(Ac)-AMC as substrate preincubated for 30 mins followed by substrate addition and measured after 15 to 30 mins
Histone deacetylase 2 = Histone deacetylase 2 (Homo sapiens, UniProt Q92769)
[3] = biological target: Sodium-dependent serotonin transporter (Homo sapiens, UniProt P31645); format: cell-based, HEK293
[4] = biological target: Sodium-dependent noradrenaline transporter (Homo sapiens, UniProt P23975); assay: Inhibition of human NET expressed in MDCK cells assessed as decrease in [3H]-noradrenaline reuptake after 10 mins by scintillation counting method; format: cell-based
[5] = biological target: Sodium-dependent dopamine transporter (Homo sapiens, UniProt Q01959); assay: Inhibition of human DAT expressed in CHOK1 cells assessed as decrease in [3H]-dopamine reuptake after 10 mins by scintillation counting method; format: cell-based
Protein Gpr81 = biological target: T2, Protein Gpr81 (Rattus norvegicus, UniProt G3V906); assay: Agonist activity at rat GPR81 expressed in T-REx-CHO cells assessed as inhibition of forskolin-stimulated cAMP accumulation preincubated for 30 mins followed by forskolin stimulation and measured after 20 mins by TR-FRET assay; format: cell-based
T2 sequence (G3V906 whole entry): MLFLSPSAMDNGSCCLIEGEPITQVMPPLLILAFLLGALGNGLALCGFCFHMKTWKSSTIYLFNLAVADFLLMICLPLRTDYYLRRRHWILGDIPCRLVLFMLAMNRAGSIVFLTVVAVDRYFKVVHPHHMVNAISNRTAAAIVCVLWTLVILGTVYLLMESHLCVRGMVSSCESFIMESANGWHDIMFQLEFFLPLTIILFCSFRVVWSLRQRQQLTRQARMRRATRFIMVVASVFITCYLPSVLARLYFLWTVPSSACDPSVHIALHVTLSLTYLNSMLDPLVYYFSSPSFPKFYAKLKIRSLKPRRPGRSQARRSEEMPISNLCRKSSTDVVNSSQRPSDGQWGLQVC

[6] = biological target: Hydroxycarboxylic acid receptor 2 (Rattus norvegicus, UniProt Q80Z39); assay: Agonist activity at rat GPR109A expressed in T-REx-CHO cells assessed as inhibition of forskolin-stimulated cAMP accumulation preincubated for 30 mins followed by forskolin stimulation and measured after 20 mins by TR-FRET assay; format: functional, cell-based
[7] = Octanol-water distribution co-efficient, log D of the compound at pH 7.4; format: physicochemical
[8] = biological target: Angiotensin-converting enzyme (Homo sapiens, UniProt P12821); assay: Inhibition of human ACE using Hip-His-Leu-OH as substrate after 1 hr by fluorimetric method
Chymotrypsinogen A = Chymotrypsinogen A (Bos taurus, UniProt P00766); assay: Inhibition of bovine alpha-chymotrypsin using succinyl Ala-Ala-Pro-Phe-p-nitroanilide as substrate after 1 hr by Dixon plot analysis
HT-29 = assay: Cytotoxicity against human HT-29 cells after 24 hrs; format: functional, cell-based; conditions: HT-29, 24 h
MCF7 = assay: Cytotoxicity against human MCF7 cells after 24 hrs; format: functional, cell-based; conditions: MCF7, 24 h
[9] = biological target: E3 ubiquitin-protein ligase XIAP (Homo sapiens, UniProt P98170); assay: Inhibition of N-terminal His-tagged XIAP BIR3 domain (241 to 356 residues) (unknown origin) using fluorescein labeled SMAC peptide as substrate after 60 mins by TR-FRET assay
[10] = biological target: E3 ubiquitin-protein ligase XIAP (Homo sapiens, UniProt P98170, C202A/C213G); assay: Inhibition of N-terminal His-tagged XIAP BIR2-3 domain (125 to 356 residues) C202A/C213G mutant (unknown origin) using fluorescein labeled SMAC peptide as substrate after 60 mins by HTRF assay
[11] = Selectivity ratio of Ki for sigma-2 receptor in rat liver membranes to Ki for sigma-1 receptor in guinea pig brain membranes; format: cell membranes

Hydroxycarboxylic acid receptor 2, sequence (Q80Z39 whole entry): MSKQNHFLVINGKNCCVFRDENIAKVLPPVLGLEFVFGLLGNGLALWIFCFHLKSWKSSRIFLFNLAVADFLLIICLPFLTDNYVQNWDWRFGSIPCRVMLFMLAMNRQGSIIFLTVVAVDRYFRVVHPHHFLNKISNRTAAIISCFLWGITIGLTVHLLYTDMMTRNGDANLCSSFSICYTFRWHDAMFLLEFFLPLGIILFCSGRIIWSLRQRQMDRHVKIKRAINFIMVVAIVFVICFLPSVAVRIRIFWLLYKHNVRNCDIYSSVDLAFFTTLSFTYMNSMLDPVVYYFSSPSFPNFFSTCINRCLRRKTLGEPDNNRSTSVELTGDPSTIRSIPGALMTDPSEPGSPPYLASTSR
Sigma non-opioid intracellular receptor 1, sequence (Q60492 whole entry): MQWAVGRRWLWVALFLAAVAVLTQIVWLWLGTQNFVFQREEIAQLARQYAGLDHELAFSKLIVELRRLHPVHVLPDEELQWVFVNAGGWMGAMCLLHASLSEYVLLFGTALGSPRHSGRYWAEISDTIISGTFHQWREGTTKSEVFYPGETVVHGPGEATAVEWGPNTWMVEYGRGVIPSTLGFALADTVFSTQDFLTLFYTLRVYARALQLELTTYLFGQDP
Angiotensin-converting enzyme, sequence (P12821 whole entry): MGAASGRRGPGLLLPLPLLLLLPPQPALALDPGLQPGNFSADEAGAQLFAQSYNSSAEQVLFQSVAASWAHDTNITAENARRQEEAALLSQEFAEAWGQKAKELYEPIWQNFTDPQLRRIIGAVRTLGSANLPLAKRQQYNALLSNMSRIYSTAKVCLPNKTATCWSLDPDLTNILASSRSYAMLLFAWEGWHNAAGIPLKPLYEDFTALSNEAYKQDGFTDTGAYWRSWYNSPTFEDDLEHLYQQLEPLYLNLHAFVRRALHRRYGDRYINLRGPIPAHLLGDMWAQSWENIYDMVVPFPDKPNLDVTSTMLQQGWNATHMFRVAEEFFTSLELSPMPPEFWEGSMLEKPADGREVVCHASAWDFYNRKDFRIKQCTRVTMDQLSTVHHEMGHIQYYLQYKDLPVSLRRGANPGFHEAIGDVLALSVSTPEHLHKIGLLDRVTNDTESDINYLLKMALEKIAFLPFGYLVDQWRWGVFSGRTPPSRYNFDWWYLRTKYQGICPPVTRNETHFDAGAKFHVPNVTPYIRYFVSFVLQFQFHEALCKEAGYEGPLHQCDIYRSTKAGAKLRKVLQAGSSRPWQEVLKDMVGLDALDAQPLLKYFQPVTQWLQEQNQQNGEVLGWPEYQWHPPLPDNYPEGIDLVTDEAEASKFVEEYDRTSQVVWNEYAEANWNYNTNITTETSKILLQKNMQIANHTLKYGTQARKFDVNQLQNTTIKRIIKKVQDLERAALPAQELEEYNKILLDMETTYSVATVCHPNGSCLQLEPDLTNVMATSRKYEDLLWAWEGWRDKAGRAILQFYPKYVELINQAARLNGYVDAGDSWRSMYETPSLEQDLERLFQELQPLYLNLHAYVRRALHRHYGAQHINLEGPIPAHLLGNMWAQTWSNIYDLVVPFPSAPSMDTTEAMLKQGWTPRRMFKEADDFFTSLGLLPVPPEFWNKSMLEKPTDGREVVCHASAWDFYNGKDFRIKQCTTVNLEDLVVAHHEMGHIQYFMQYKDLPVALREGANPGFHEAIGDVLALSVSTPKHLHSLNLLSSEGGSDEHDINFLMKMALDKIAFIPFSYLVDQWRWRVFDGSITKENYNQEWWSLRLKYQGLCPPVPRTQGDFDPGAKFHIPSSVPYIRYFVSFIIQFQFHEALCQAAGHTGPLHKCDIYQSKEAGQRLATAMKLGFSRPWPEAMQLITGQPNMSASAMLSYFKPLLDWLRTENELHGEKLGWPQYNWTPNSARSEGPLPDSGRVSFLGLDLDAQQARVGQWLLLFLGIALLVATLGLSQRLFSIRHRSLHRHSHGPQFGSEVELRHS
Histone deacetylase 1, sequence (Q13547 whole entry): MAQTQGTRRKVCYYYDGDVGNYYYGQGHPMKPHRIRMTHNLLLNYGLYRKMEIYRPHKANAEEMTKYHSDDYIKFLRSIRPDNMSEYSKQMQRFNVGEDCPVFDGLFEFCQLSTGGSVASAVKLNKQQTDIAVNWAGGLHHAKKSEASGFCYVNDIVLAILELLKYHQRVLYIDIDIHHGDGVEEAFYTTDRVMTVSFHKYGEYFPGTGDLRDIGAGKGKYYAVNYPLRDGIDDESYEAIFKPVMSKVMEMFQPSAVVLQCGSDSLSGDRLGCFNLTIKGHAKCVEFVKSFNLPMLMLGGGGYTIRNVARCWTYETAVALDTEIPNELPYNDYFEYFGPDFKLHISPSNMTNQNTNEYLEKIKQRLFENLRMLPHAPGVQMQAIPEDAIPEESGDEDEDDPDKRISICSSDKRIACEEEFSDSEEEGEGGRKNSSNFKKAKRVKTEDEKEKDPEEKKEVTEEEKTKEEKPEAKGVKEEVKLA
Sodium-dependent noradrenaline transporter, sequence (P23975 whole entry): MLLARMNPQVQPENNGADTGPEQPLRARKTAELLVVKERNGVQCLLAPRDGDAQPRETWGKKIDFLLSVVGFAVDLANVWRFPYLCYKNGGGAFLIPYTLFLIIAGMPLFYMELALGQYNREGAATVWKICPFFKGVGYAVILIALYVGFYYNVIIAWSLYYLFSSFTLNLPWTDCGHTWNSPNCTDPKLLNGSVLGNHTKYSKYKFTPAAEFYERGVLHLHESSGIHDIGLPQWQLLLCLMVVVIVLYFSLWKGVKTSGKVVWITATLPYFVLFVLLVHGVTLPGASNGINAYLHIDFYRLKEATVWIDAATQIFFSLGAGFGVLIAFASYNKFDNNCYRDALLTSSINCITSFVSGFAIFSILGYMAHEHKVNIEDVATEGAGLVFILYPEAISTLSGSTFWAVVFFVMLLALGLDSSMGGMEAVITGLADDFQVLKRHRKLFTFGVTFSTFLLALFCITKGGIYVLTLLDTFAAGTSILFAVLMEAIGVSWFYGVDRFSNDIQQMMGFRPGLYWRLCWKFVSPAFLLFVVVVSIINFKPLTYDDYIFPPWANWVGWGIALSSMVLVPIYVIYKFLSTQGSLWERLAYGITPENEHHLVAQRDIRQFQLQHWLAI
Histone deacetylase 2, sequence (Q92769 whole entry): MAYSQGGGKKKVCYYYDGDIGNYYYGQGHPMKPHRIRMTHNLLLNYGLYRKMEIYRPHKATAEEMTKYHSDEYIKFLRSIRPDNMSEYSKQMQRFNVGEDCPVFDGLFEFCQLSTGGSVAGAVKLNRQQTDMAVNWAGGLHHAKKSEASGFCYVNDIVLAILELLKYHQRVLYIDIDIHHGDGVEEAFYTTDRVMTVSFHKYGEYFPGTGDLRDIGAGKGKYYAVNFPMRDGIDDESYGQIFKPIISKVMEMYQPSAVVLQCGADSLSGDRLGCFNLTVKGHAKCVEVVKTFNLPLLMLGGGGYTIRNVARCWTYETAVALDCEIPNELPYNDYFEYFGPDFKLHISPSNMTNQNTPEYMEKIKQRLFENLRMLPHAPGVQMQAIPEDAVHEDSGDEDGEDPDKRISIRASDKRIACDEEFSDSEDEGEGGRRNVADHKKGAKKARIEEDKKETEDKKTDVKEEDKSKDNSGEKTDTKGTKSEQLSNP
E3 ubiquitin-protein ligase XIAP (Homo sapiens, UniProt P98170, C202A/C213G), sequence (P98170 whole entry C202A/C213G, the tested form may be a part): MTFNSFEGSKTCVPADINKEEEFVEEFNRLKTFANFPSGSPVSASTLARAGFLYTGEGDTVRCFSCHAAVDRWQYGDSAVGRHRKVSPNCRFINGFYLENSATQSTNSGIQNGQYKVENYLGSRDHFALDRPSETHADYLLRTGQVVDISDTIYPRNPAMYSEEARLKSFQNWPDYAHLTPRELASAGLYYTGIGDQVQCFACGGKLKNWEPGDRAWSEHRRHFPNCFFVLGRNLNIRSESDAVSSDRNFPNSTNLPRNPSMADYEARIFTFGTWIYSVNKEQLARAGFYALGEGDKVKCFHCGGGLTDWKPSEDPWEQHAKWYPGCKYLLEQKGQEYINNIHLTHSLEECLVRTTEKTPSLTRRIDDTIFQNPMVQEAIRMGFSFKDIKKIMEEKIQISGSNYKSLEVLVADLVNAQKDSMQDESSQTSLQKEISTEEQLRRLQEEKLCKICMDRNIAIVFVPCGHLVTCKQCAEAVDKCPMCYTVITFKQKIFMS
E3 ubiquitin-protein ligase XIAP (Homo sapiens, UniProt P98170), sequence (P98170 whole entry, the tested form may be a part): as the sequence (P98170 whole entry C202A/C213G, the tested form may be a part) above, with A202C, G213C counted along it
Sodium-dependent dopamine transporter, sequence (Q01959 whole entry): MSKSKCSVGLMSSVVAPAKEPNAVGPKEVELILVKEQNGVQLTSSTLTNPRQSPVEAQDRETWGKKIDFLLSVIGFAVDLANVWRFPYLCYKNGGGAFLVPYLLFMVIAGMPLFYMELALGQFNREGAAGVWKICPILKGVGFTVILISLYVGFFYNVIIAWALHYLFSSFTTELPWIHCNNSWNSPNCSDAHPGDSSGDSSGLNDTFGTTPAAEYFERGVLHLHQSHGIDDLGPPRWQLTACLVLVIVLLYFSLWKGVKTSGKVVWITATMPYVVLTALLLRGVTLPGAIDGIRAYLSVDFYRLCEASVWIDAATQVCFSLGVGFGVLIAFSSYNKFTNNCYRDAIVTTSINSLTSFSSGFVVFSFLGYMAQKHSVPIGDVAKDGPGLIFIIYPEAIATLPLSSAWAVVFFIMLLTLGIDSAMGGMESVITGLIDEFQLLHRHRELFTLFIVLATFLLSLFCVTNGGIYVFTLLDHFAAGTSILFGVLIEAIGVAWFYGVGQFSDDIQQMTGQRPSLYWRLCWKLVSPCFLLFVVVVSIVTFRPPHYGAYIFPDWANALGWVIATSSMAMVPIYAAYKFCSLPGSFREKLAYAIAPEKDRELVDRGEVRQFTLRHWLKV

Work on `c1ccc(CN2CCC3(CCCc4ccccc43)CC2)cc1` yielded a Ki [1] of 2 nM and a Ki [2] of 44 nM.

Work on `C=C[Si](C)(C)O` yielded an MLC (Escherichia coli) of 1.23%, an MLC (Staphylococcus aureus) of 1.04% and an MLC (Pseudomonas aeruginosa) of 1%. The MLC (Enterococcus faecalis) was 1.32%.

`C[Si](O)(O)CCCCCCC(=O)Nc1ccccc1` showed an IC50 (Histone deacetylase 1) of 2700 nM and an IC50 (Histone deacetylase 2) of 6300 nM.

`COc1ccc(C(CN(C)C)[Si]2(O)CCCC2)cc1` (racemic) showed an IC50 [3] of 904 nM, an IC50 [4] of 275 nM and an IC50 [5] of 707 nM.

Work on `CC[Si](C)(C)O` yielded an MLC (Escherichia coli) of 1.04%, an MLC (Staphylococcus aureus) of 0.8% and an MLC (Pseudomonas aeruginosa) of 0.87%. For the same molecule, the MLC (Enterococcus faecalis) was 1.14%.

`CCOc1cc(Cl)c(C(=O)NC(=O)Nc2nc3c(s2)C[Si](C)(c2c(OC)cccc2OC)CC3)cc1N1CCOCC1` (centres undefined) showed an EC50 (Protein Gpr81) of 1200 nM, an EC50 [6] of 1300 nM and a logD [7] of 4.6.

With `C[C@H](CS)C(=O)N1C[Si](C)(C)C[C@H]1C(=O)O` the IC50 [8] was 43 nM.

With `C[C@H](C[Si](O)(O)[C@H](Cc1ccccc1)NC(=O)[C@@H]1CCCN1)C(N)=O` the Ki (Chymotrypsinogen A) was 107 nM.

For `CCOC(=O)/C(=N/NC(=O)c1ccc(CO[Si](C)(C)C(C)(C)C)o1)c1ccccc1`, the IC50 (HT-29) was 8.6 µg/mL (≈ 20 µM) and the IC50 (MCF7) was 13.3 µg/mL (≈ 30.9 µM).

In the case of `CN[C@@H](C)C(=O)N[C@@H](Cc1ccc(C#CC(=O)N[C@H]2C[C@@H](C(=O)N[C@@H]3CCCc4ccccc43)N(C(=O)[C@@H](NC(=O)[C@H](C)NC)C(C)(C)C)C2)cc1)C(=O)N1C[Si](C)(C)C[C@H]1C(=O)N[C@@H]1CCCc2ccccc21`, the IC50 [9] is reported as 3 nM and the IC50 [10] is reported as 4 nM.

For `CC(C)CCN1CCC2(CCCc3ccccc32)CC1`, the Ki [1] was 1.8 nM and the Ki [2] was 5.5 nM.

With `c1ccc(CN2CC[Si]3(CCCc4ccccc43)CC2)cc1` the Ki [1] was 1.1 nM, the Ki [2] was 243 nM and the Ratio Ki [11] was 221.

In the case of `CC(C)CCN1CC[Si]2(CCCc3ccccc32)CC1`, the Ki [1] is reported as 0.3 nM, the Ki [2] is reported as 19 nM and the Ratio Ki [11] is reported as 63.

`CC(C)(O)c1ccccc1` showed an MLC (Escherichia coli) of 0.96%, an MLC (Staphylococcus aureus) of 0.78% and an MLC (Pseudomonas aeruginosa) of 0.71%. It also gave an MLC (Enterococcus faecalis) of 0.93%.

`CCOc1cc(Cl)c(C(=O)NC(=O)Nc2nc3c(s2)CCCC3)cc1N1CCOCC1` showed an EC50 (Protein Gpr81) of 240 nM, an EC50 [6] of 2100 nM and a logD [7] of 4.2.

`C[Si](C)(O)c1ccccc1` showed an MLC (Escherichia coli) of 0.27%, an MLC (Staphylococcus aureus) of 0.26% and an MLC (Pseudomonas aeruginosa) of 0.35%. It also gave an MLC (Enterococcus faecalis) of 0.42%.

Work on `COC(=O)/C(=N/NC(=O)c1ccc(CO[Si](C)(C)C(C)(C)C)o1)c1ccccc1` yielded an IC50 (MCF7) of 13.3 µg/mL (≈ 31.9 µM).

For `CCOc1cc(Cl)c(C(=O)NC(=O)Nc2nc3c(s2)C[Si](C)(c2ccc(OC)cc2)CC3)cc1N1CCOCC1` (centres undefined), the EC50 (Protein Gpr81) was 1000 nM, the EC50 [6] was 1200 nM and the logD [7] was 4.8.

Work on `c1ccc(CCN2CC[Si]3(CCCc4ccccc43)CC2)cc1` yielded a Ki [1] of 2.9 nM and a Ki [2] of 39 nM.

In the case of `CC(C)(C)O` [TERT-BUTANOL], the MLC (Escherichia coli) is reported as 13.54%, the MLC (Staphylococcus aureus) is reported as 10.61% and the MLC (Pseudomonas aeruginosa) is reported as 9.79%. For the same molecule, the MLC (Enterococcus faecalis) was 13.33%.

`COc1ccc(CN2CC[Si]3(CCCc4ccccc43)CC2)cc1` showed a Ki [1] of 2.7 nM and a Ki [2] of 460 nM.

For `C=CC(C)(C)O`, the MLC (Escherichia coli) was 5.23%, the MLC (Staphylococcus aureus) was 4.37% and the MLC (Pseudomonas aeruginosa) was 3.67%. For the same molecule, the MLC (Enterococcus faecalis) was 5.63%.

In the case of `CCC(C)(C)O` [AMYLENE HYDRATE], the MLC (Escherichia coli) is reported as 5.09%, the MLC (Staphylococcus aureus) is reported as 4.17% and the MLC (Pseudomonas aeruginosa) is reported as 3.96%. For the same molecule, the MLC (Enterococcus faecalis) was 5.67%.

Molecule `COc1ccc(CN2CCC3(CCCc4ccccc43)CC2)cc1` has a Ki [1] of 3.8 nM and a Ki [2] of 206 nM.

For `CC(C)OC(=O)/C(=N/NC(=O)c1ccc(CO[Si](C)(C)C(C)(C)C)o1)c1ccccc1`, the IC50 (HT-29) was 6.4 µg/mL (≈ 14.4 µM) and the IC50 (MCF7) was 3.6 µg/mL (≈ 8.1 µM).

Molecule `c1ccc(CCN2CCC3(CCCc4ccccc43)CC2)cc1` has a Ki [1] of 8 nM and a Ki [2] of 34 nM.
